In publication PMC6968488, “In vitro and in vivo evaluation of didymin cyclodextrin inclusion complexes: characterization and chemosensitization activity” (Drug Delivery, 2019):
≈ marks a conversion by molar mass, not a printed value. Where two headings read alike, the source gives them in different places.

Legend:
MCF-7/ADR cells [1] = assay: MTT cytotoxicity / chemosensitivity assay, resistant tumor cells; type: cell-based
Description: (§1) The cytotoxicity of didymin on various cell lines was examined by MTT assay as previously reported (Yao et al., [2019]). The didymin solution was prepared by dissolving in DMSO at different concentrations and diluted with the fresh medium right before the treatment. The didymin inclusion complex was dispersed in the sterilized water and then diluted with the fresh medium before treatment. Experiments involving healthy cells (HUVEC, H9C2, and PC12) by culturing 100 μL cell suspension (5 × 10^4 cell/mL) in 96 well plates. After 24 h incubation, the didymin or didymin inclusion complexes contained medium was used to replace the overnight medium and cultured for 48 h, respectively. After that, the MTT solution at the concentration of 5 mg/mL was added to each well. After 4 h incubation, the medium was removed, and the MTT formazan was dissolved by DMSO. Then the DMSO solution is measured using a microplate reader with the absorbance wavelength at 570 nm. The untreated cells were used as control. The cell viability (%) was calculated as follows, cell viability (%) = Asample/Acontrol ×100.
(§2) The MCF-7 and MCF-7/ADR cells cytotoxicity of the combination of didymin and doxorubicin were evaluated by MTT assay, as mentioned above.

MCF-7/ADR tumor = assay: In vivo antitumor efficacy in mice bearing resistant tumors; parameters: species or system BALB/c nude mice; details: DOX 5 mg/kg/3 days i.p.; Didymin/HP-β-CD 20 mg/kg/day i.g.; 14 days
Description: To further investigate the chemosensitivity of […] inclusion complex, female BALB/c nude mice (5-6 weeks old, Shanghai Laboratory Animal Center, China) were injected subcutaneously with MCF-7/ADR cells (10^7 cells/per mouse). […] (1) Control group, 0.9% saline (0.2 mL/kg/day, i.p.); (2) DOX group, DOX (5 mg/kg/3 days, i.p.); (3) DOX + […] group, DOX (5 mg/kg/3 days, […] was given by oral gavage (i.g.) while DOX was intraperitoneal injected (i.p.). DOX injection was performed 30 min after the […] by gavage. The mouse weight and tumor volume were measured every day. The tumor volume was obtained using the formula (Yao et al., [2019]). On day 14, the mice were sacrificed, and tumor tissues were collected, fixed and sliced for pathological examination (H&E staining, Ki67 immunohistochemical staining, and TUNEL assay).

[2] = Solubility study of didymin in different media (HPLC); type: physicochemical; details: for solubility at 72 h: thermodynamic from solid, room temperature, 72 h stirring
Description: Add excess didymin into a different medium (water, ethanol, methanol, 1% β-CD, and 1% HP-β-CD), and keep stirring at room temperature for 72 h. After that, 1.5 mL of the suspension was taken for centrifugation to take the supernatant. After filtering with a […] filter membrane (Shanghai Boguang Biotechnology Co., Ltd, Shanghai, China), the concentration of each solution was measured by the HPLC method.
An analytical HPLC method was developed to determine the concentration of didymin. The chromatographic conditions are: Agilent HC-C18 column (4.6 mm × 250 mm, 5 μm) (Agilent Technologies, Inc., Santa Clara, CA, USA), the mobile phase was phosphate buffer (pH 6.8)–methanol (45:55), the detection wavelength was 283 nm, the column temperature was 25 °C, and the flow rate was 1.0 mL/min, and. The samples were filtered (0.45 μm) and deaerated before use.

[3] = Pharmacokinetic study after oral administration; type: in vivo; details: male, rat, plasma, SD rats, 25 mg/kg
Description: All animal experiments were carried out under the Guide for Care and Use of Laboratory Animals and approved by the approval of the Ethics Committee of Wenzhou Medical University. Male SD rats ([…], Shanghai Laboratory Animal Center, China) weighing 220–250 g (n = 6 per group) were studied in the pharmacokinetic study. Free didymin and two types of didymin inclusion complexes (25 mg/kg, respectively) were orally administered with sterilized water. Then blood samples were collected from the orbit venous plexus at predetermined time intervals. The blood samples were then centrifuged at 15000 r/min for 10 min, then dried at 40 °C under nitrogen flow to solid-phase extraction. Methanol was added to dissolve the residue. Then the concentration of didymin in plasma was determined by HPLC methods and calculated the pharmacokinetic parameters.

[4] = MTT cytotoxicity assay on healthy cells; type: cell-based; details: all tested concentrations 10 μM∼200 μM, read-out: cell viability
Description: as §1

Acute toxicity study = type: in vivo, BALB/c mice; details: mice, single oral dose 250 mg/kg
Description: An acute toxicity test was conducted as previously reported (Kandhare et al., [2016]). In brief, the BALB/c mice weighing about 18–22 g were administrated of didymin at a single dose of 250 mg/kg using oral gastric gavages. […] On 15th day animals were sacrificed, and the major organs were collected, fixed, and sliced for H&E staining.

MCF-7 cells = assay: MTT cytotoxicity / chemosensitivity assay, sensitive tumor cells; type: cell-based; details: MCF-7, without DOX, tested concentrations
Description: as §1, §2

MCF-7/ADR cells [5] = assay: Intracellular uptake study of DOX; type: cell-based; details: DOX 10 μM, 4 h, fluorescence microscopy and quantitative analysis
Description: The effect of didymin on the intracellular uptake of the P-gp substrate was conducted as previously reported (Dai et al., [2016]; Yao et al., [2019]). Briefly, MCF-7/ADR cells were seeded in a 6-well plate at 4 × 10^5 cell/mL overnight before the experiment. Then the cancer cells were incubated with DOX (10 μM) at a concentration with or without didymin formulations for 4 h. Then, the treated cells were washed with ice-cold PBS three times and recorded under fluorescence microscopy (Nikon, Tokyo, Japan). In an independent study, after treatment, the cells were washed with ice-cold PBS and then lysed. Then acetonitrile was added into the cell lysate to extract the didymin via protein precipitation (PP)/extraction method. The didymin concentration in the supernatant was determined by the previously validated HPLC method.

P-gp transporter = biological target: T1, P-gp transporter (Homo sapiens, UniProt P08183); assay: Calcein-AM extrusion assay; type: cell-based; details: MCF-7/ADR, 30 min pre-incubation then calcein-AM 30 min
T1 construct: endogenous in cells; host or cells: MCF-7/ADR cells
T1 sequence (P08183 whole entry): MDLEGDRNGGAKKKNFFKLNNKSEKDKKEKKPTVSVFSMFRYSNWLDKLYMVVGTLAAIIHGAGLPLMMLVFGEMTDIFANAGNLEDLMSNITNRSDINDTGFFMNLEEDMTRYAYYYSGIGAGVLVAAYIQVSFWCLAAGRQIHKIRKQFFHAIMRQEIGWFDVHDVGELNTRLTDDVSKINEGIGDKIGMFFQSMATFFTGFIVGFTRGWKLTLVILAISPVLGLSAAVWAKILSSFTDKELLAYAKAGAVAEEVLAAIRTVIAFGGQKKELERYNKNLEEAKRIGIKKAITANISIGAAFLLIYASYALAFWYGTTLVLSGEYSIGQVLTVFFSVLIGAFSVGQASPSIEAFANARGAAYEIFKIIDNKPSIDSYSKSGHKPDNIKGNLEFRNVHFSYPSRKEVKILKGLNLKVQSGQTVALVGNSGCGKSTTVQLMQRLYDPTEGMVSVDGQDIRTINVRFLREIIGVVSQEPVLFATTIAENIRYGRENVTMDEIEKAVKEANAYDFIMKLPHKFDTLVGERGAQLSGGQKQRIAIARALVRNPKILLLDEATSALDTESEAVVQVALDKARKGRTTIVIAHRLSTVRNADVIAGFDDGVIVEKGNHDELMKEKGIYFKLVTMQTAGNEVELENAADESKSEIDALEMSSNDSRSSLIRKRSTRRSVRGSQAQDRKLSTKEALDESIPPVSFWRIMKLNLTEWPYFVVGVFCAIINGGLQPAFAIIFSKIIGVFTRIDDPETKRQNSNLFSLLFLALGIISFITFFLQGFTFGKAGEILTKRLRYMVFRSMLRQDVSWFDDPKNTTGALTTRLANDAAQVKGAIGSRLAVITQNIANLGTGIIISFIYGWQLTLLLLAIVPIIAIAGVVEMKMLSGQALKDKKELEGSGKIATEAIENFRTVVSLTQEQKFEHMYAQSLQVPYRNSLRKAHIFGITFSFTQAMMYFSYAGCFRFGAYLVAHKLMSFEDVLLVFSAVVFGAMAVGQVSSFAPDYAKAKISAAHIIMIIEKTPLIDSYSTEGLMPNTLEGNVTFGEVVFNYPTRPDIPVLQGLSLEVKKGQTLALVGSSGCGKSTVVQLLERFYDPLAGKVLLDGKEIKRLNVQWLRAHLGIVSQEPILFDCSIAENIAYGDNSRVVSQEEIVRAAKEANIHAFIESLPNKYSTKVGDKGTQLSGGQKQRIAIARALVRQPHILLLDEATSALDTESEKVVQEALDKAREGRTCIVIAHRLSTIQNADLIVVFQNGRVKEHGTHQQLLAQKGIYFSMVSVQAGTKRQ
Description: The effect of didymin and its inclusion complex on the efflux function of P-gp transporter was studied using calcein-AM extrusion assay as reported (Dai et al., [2016]). Briefly, MCF-7/ADR cells were seeded in a 6-well plate at 2 × 10^5 cell/mL overnight before the experiment. The cancer cell was incubated with verapamil or didymin formulations for 30 min and then treated with calcein-AM for another 30 min. Then, the treated cells were washed with ice-cold PBS three times and recorded under fluorescence microscopy. In an independent study, after treatment, the cells were washed, trypsinized, and collected by centrifuge. The collected cells were then washed with PBS and analyzed by flow cytometry (BD Bioscience, Franklin Lakes, NJ, USA). The data was collected with 1 × 10^5 events counter per samples

Compound COc1cccc2c1C(=O)c1c(O)c3c(c(O)c1C2=O)C[C@@](O)(C(=O)CO)C[C@@H]3O[C@H]1C[C@H](N)[C@H](O)[C@H](C)O1 [DOX, doxorubicin, reference compound] has an IC50 (MCF-7/ADR cells [1]; Homo sapiens, NCI/ADR-RES, free DOX) of over 20 µM and a tumor growth inhibition (MCF-7/ADR tumor) of 34%.
With COc1ccc(C2CC(=O)c3c(O)cc(OC4OC(COC5OC(C)C(O)C(O)C5O)C(O)C(O)C4O)cc3O2)cc1 (stereo not drawn) [didymin, isosakuranetin-7-beta-rutinoside] the solubility at 72 h ([2]; aqueous with cosolvent or surfactant or cyclodextrin, 1% HP-β-CD solution, read-out: solubility in 1% HP-β-CD solution) was 735 ± 370 µg/mL (≈ 1240 µM), the solubility at 72 h ([2]; organic solvent or mixture, ethanol, read-out: solubility in ethanol) was 1240 ± 720 µg/mL (≈ 2090 µM) and the solubility at 72 h ([2]; organic solvent or mixture, methanol, read-out: solubility in methanol) was 11200 ± 1190 µg/mL (≈ 18900 µM). For the same compound, the “increase of aqueous solubility compared to free didymin” value ([2]; presence of HP-β-CD) was 6.9 times, the “increase of aqueous solubility compared to free didymin” value ([2]; presence of β-CD) was 4.7 times and the solubility at 72 h ([2]; water, read-out: solubility in water) was 107 ± 120 µg/mL (≈ 180 µM). For the same compound, the Cmax [3] was 2770 ng/mL, the Tmax [3] was 11.4 ± 3 min and the half-life [3] was 105 ± 9.6 min. It also gave an AUC(0-t) ([3]; read-out: AUC0–12 h) of 5910 ng·h/mL, a viability at 48 h ([4]; human, HUVEC cells) of over 90% and a viability at 48 h ([4]; rat, H9C2 cells, H9C2, 48 h) of over 90%. The viability at 48 h ([4]; rat, PC12 cells, PC12, 48 h) was over 90%, the “abnormal behaviors and weight change in the observation period” value (Acute toxicity study; 14 days) was “did not show any abnormal behaviors and weights change” and the “H&E staining of major organs” value (Acute toxicity study; after 14 days) was “no signs of any toxicity”. For the same compound, the cytotoxicity alone (MCF-7 cells) was “did not exert toxicity on cancer cells”, the cytotoxicity alone (MCF-7/ADR cells [1]; without DOX, tested concentrations) was “did not exert toxicity on cancer cells” and the DOX intracellular accumulation (MCF-7/ADR cells [5]) was “increase the DOX intracellular accumulation”. For the same compound, the “P-gp efflux function (intracellular calcein fluorescence)” value (P-gp transporter) was “significantly inhibit the function of P-gp transporter”.
